Measured values from the NIST ThermoML archive (doi:10.1016/j.jct.2015.07.020).
± gives the expanded uncertainty stated by the source.

Assays:
[1] = 101.33 kPa, Liquid, Vibrating tube method
[2] = refractive index (Na D-line) (dimensionless); conditions: 101.33 kPa, Liquid, Standard Abbe refractometry

SMILES | mass density ([1]; 298.15 K) [kg/m3] | refractive index ([2]; 298.15 K) | mass density ([1]; 293.15 K) [kg/m3] | refractive index ([2]; 293.15 K)
CCc1ccccc1 [ethylbenzene] | 862.51 ± 0.3 | 1.493 ± 0.0005 |  | 
CC(C)c1ccccc1 [isopropylbenzene] |  |  | 863.82 ± 0.3 | 1.4912 ± 0.0005
O [water] |  | 1.3324 ± 0.0005 |  | 
